This note sets out measurements from PubChem BioAssay (NCI).

SMILES strings stand for the structures.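 1) Cells in 96-well plates. 2) Compound, 48 h, 5 concentrations. 3) Linear interpolation between surrounding doses. 4) Unreached endpoint = highest concentration. GI50 is the concentration that inhibits growth by half. TGI is the concentration that stops growth completely.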

Test systems include COLO 205 colon; HCC-2998 colon; HCT-116 colon; HOP-62 NSCLC; IGROV1 ovarian; MDA-MB-231 breast; NCI/ADR-RES ovarian; SN12C renal; SR leukemia; HOP-92 NSCLC.
Common to all, as to assay: inhibition of tumour cell growth, NCI panel, 48 h

For `[N-]=[N+]=NCCCn1c2c(c3ccc([N+](=O)[O-])cc3c1=O)C(=O)c1cc(I)ccc1-2`, the GI50 with COLO 205 colon was 40.4 µM; with HCC-2998 colon, 11.7 µM; in the assay on HCT-116 colon, 2.15 µM; in the assay on HOP-62 NSCLC, 1.82 µM; in the assay on IGROV1 ovarian, 1.95 µM; with MDA-MB-231 breast, more than 100 µM. The GI50 with NCI/ADR-RES ovarian was 4.17 µM; with SN12C renal it was 3.89 µM; in the assay on SR leukemia it was 0.344 µM. In addition, the TGI in the assay on COLO 205 colon is more than 100 µM; with HCC-2998 colon, 59.3 µM; with HCT-116 colon, 26.4 µM; in the assay on HOP-62 NSCLC, 38.8 µM; with IGROV1 ovarian, 65.5 µM; in the assay on MDA-MB-231 breast it was more than 100 µM. The TGI is 46.6 µM with NCI/ADR-RES ovarian, more than 100 µM in the assay with SN12C renal and 2.87 µM in the assay with SR leukemia.

On to `CN1C(=O)/C(=C2\S/C(=N\c3nnc(-c4ccccc4)o3)NC2=O)c2ccccc21`, for which the GI50 was more than 100 µM in the assay on COLO 205 colon; more than 100 µM in the assay on HCC-2998 colon; 92.4 µM in the assay on HCT-116 colon; 68.8 µM in the assay on HOP-62 NSCLC; more than 100 µM in the assay on HOP-92 NSCLC; 59.9 µM with IGROV1 ovarian. Further, the GI50 with MDA-MB-231 breast is more than 100 µM; with NCI/ADR-RES ovarian, 84.7 µM; in the assay with SN12C renal, more than 100 µM. For the same compound, the TGI with COLO 205 colon, in the assay on HCC-2998 colon, in the assay with HCT-116 colon, in the assay with HOP-62 NSCLC, in the assay on HOP-92 NSCLC and in the assay on IGROV1 ovarian was more than 100 µM in each case. Further, the TGI in the assay on MDA-MB-231 breast, in the assay with NCI/ADR-RES ovarian and in the assay with SN12C renal was more than 100 µM throughout.

For the compound `Cc1cc2c(C(=O)NCC#N)cccc2n1-c1nc2c(c(NCc3ccccc3)n1)CCCC2`, the GI50 in the assay on COLO 205 colon is 0.201 µM; in the assay with HCC-2998 colon, 0.178 µM; in the assay with HCT-116 colon it was 0.185 µM; with IGROV1 ovarian, 0.315 µM; in the assay with MDA-MB-231 breast, 0.273 µM; with NCI/ADR-RES ovarian, 0.328 µM. Also, the GI50 with SN12C renal was 0.31 µM; in the assay with SR leukemia, 0.257 µM. In addition, the TGI was 0.404 µM in the assay on COLO 205 colon; 0.357 µM in the assay with HCC-2998 colon; 0.637 µM in the assay with HCT-116 colon; 1.24 µM with IGROV1 ovarian; 0.59 µM in the assay with MDA-MB-231 breast; 3.03 µM in the assay with NCI/ADR-RES ovarian. Besides, the figures for the TGI with SN12C renal and in the assay on SR leukemia were 0.904 µM and 10.3 µM, respectively.

For `Nc1nc(=S)c2ncn(C3OC(CO)C(O)C3O)c2[nH]1` (stereo unspecified), the GI50 in the assay with COLO 205 colon is 2.18 µM; with HCC-2998 colon it was 0.7 µM; with HCT-116 colon it was 0.347 µM; in the assay on HOP-62 NSCLC, 0.273 µM; in the assay on HOP-92 NSCLC it was 0.33 µM; in the assay on IGROV1 ovarian, 3.77 µM. Also, the GI50 is 1.39 µM in the assay on MDA-MB-231 breast, 0.4 µM in the assay with NCI/ADR-RES ovarian and 3.98 µM in the assay on SN12C renal. Moreover, the TGI is 7.82 µM in the assay on COLO 205 colon; 5 µM in the assay with HCC-2998 colon; 3.98 µM in the assay with HOP-62 NSCLC; 7.53 µM in the assay on HOP-92 NSCLC; more than 35.5 µM in the assay with IGROV1 ovarian; more than 100 µM in the assay with MDA-MB-231 breast. Also, the TGI in the assay with SN12C renal is more than 100 µM.

For `COC(=O)CC1C2(C)C3=C(C)C(c4ccoc4)CC3OC2C2OC(=O)C3(C)C=CC(=O)C1(C)C23` (stereo unspecified), the TGI in the assay with COLO 205 colon came out at 3.58 µM; in the assay on HCC-2998 colon, 2.7 µM; in the assay on HCT-116 colon, 2.28 µM; in the assay on HOP-62 NSCLC, 9.1 µM; in the assay with HOP-92 NSCLC, 5.52 µM; in the assay on IGROV1 ovarian it was 3.29 µM. Moreover, the TGI in the assay with MDA-MB-231 breast stood at 2.81 µM; with NCI/ADR-RES ovarian, 14.1 µM; in the assay with SN12C renal, 2.58 µM.

As for `Cc1cncc(-c2nc(NCCc3c[nH]c4ccccc34)c3ncn(C(C)C)c3n2)c1`, the GI50 is 2.9 µM in the assay on COLO 205 colon; 4.12 µM with HCC-2998 colon; 3.88 µM in the assay with HCT-116 colon; 6.01 µM in the assay on HOP-62 NSCLC; 3.63 µM in the assay with HOP-92 NSCLC; 5.94 µM in the assay on IGROV1 ovarian. The GI50 in the assay with MDA-MB-231 breast was 4.3 µM; in the assay on NCI/ADR-RES ovarian, 3.69 µM; with SN12C renal, 3.67 µM. Moreover, the TGI in the assay with COLO 205 colon was 7.26 µM; with HCC-2998 colon, 15.1 µM; with HCT-116 colon it was more than 100 µM; in the assay on HOP-62 NSCLC, 22.9 µM; in the assay on HOP-92 NSCLC, 15.5 µM; in the assay with IGROV1 ovarian, 22.1 µM. The TGI in the assay with MDA-MB-231 breast was 17.6 µM; in the assay on NCI/ADR-RES ovarian, 24 µM; in the assay on SN12C renal it was 32.4 µM.

On to `c1ccc(COCC[P+](c2ccccc2)(c2ccccc2)c2ccccc2)cc1`, for which the GI50 is 0.868 µM in the assay on COLO 205 colon; 0.679 µM in the assay with HCT-116 colon; 3.59 µM with HOP-62 NSCLC; 1.08 µM with IGROV1 ovarian; 2.36 µM in the assay with MDA-MB-231 breast; 19.7 µM in the assay on NCI/ADR-RES ovarian. The GI50 in the assay with SN12C renal is 2.3 µM; in the assay on SR leukemia it was 0.725 µM. Also, the TGI with COLO 205 colon is 3.65 µM; in the assay on HCT-116 colon, 12.5 µM; in the assay with HOP-62 NSCLC it was 32.4 µM; with IGROV1 ovarian, 11.9 µM; in the assay on MDA-MB-231 breast it was 14.2 µM; in the assay on NCI/ADR-RES ovarian, 57.1 µM. The TGI was 11.3 µM with SN12C renal and 11 µM with SR leukemia.
